Columns and labels:
[1] = excess molar enthalpy (molar enthalpy of mixing); xn = mol fraction of the nth substance listed; details: 298.15 K, Liquid, Calvet calorimetry
[2] = 298.15 K; 101.33 kPa; Liquid

CCCCC(=O)OC(=O)CCCC [pentanoic anhydride] + CCCCCCCCCCCC
[1]
Details | excess molar enthalpy [kcal/mol]
x1 = 0.0248 | 0.0469
x1 = 0.0484 | 0.0865
x1 = 0.0709 | 0.118
x1 = 0.0923 | 0.146
x1 = 0.1128 | 0.169
x1 = 0.1324 | 0.189
x1 = 0.1511 | 0.207
x1 = 0.1691 | 0.222
x1 = 0.1914 | 0.239
x1 = 0.2126 | 0.253
x1 = 0.2327 | 0.265
x1 = 0.2518 | 0.276
x1 = 0.2699 | 0.285
x1 = 0.2827 | 0.292
x1 = 0.3038 | 0.299
x1 = 0.3195 | 0.305
x1 = 0.3411 | 0.315
x1 = 0.3488 | 0.317
x1 = 0.3569 | 0.319
x1 = 0.3654 | 0.321
x1 = 0.3743 | 0.323
x1 = 0.3837 | 0.325
x1 = 0.3935 | 0.327
x1 = 0.4025 | 0.328
x1 = 0.4118 | 0.329
x1 = 0.4217 | 0.33
x1 = 0.432 | 0.331
x1 = 0.4428 | 0.332
x1 = 0.4542 | 0.333
x1 = 0.4644 | 0.333
x1 = 0.475 | 0.333
x1 = 0.4861 | 0.332
x1 = 0.4978 | 0.332
x1 = 0.51 | 0.331
x1 = 0.5229 | 0.329
x1 = 0.5342 | 0.327
x1 = 0.5461 | 0.326
x1 = 0.5585 | 0.323
x1 = 0.5715 | 0.32
x1 = 0.5851 | 0.317
x1 = 0.5993 | 0.313
x1 = 0.6122 | 0.309
x1 = 0.6257 | 0.305
x1 = 0.6398 | 0.3
x1 = 0.6545 | 0.294
x1 = 0.6699 | 0.287
x1 = 0.6861 | 0.28
x1 = 0.7003 | 0.272
x1 = 0.7151 | 0.265
x1 = 0.7305 | 0.256
x1 = 0.7467 | 0.246
x1 = 0.7635 | 0.235
x1 = 0.7811 | 0.223
x1 = 0.7967 | 0.211
x1 = 0.8129 | 0.199
x1 = 0.8298 | 0.185
x1 = 0.8474 | 0.17
x1 = 0.8657 | 0.153
x1 = 0.8849 | 0.135
x1 = 0.9022 | 0.117
x1 = 0.9202 | 0.0976
x1 = 0.9389 | 0.0768
x1 = 0.9584 | 0.0528
x1 = 0.9788 | 0.028

CCCCCC(=O)OC(=O)CCCCC [caproic anhydride] + CCCCCCCCCCCCCCCC
[1]
Details | excess molar enthalpy [kcal/mol]
x1 = 0.0307 | 0.0555
x1 = 0.0596 | 0.0993
x1 = 0.0868 | 0.135
x1 = 0.1125 | 0.163
x1 = 0.1368 | 0.189
x1 = 0.1597 | 0.209
x1 = 0.1815 | 0.227
x1 = 0.2022 | 0.242
x1 = 0.2219 | 0.255
x1 = 0.2406 | 0.266
x1 = 0.2627 | 0.278
x1 = 0.282 | 0.289
x1 = 0.2889 | 0.293
x1 = 0.2962 | 0.296
x1 = 0.3038 | 0.3
x1 = 0.3118 | 0.303
x1 = 0.3202 | 0.307
x1 = 0.3291 | 0.31
x1 = 0.3373 | 0.313
x1 = 0.346 | 0.316
x1 = 0.355 | 0.318
x1 = 0.3646 | 0.321
x1 = 0.3747 | 0.324
x1 = 0.3853 | 0.326
x1 = 0.3954 | 0.329
x1 = 0.4059 | 0.331
x1 = 0.417 | 0.333
x1 = 0.4262 | 0.333
x1 = 0.4357 | 0.334
x1 = 0.4457 | 0.335
x1 = 0.4562 | 0.336
x1 = 0.4671 | 0.336
x1 = 0.4787 | 0.336
x1 = 0.4907 | 0.336
x1 = 0.5034 | 0.335
x1 = 0.5144 | 0.334
x1 = 0.5258 | 0.333
x1 = 0.5377 | 0.331
x1 = 0.5502 | 0.33
x1 = 0.5633 | 0.328
x1 = 0.5771 | 0.325
x1 = 0.5893 | 0.322
x1 = 0.602 | 0.318
x1 = 0.6153 | 0.314
x1 = 0.6292 | 0.31
x1 = 0.6437 | 0.304
x1 = 0.6589 | 0.299
x1 = 0.6721 | 0.293
x1 = 0.6857 | 0.286
x1 = 0.6999 | 0.279
x1 = 0.7147 | 0.271
x1 = 0.7287 | 0.262
x1 = 0.7433 | 0.254
x1 = 0.7584 | 0.244
x1 = 0.7742 | 0.233
x1 = 0.7907 | 0.221
x1 = 0.8078 | 0.208
x1 = 0.8233 | 0.196
x1 = 0.8393 | 0.181
x1 = 0.856 | 0.166
x1 = 0.8733 | 0.15
x1 = 0.8914 | 0.132
x1 = 0.9102 | 0.112
x1 = 0.9269 | 0.0931
x1 = 0.9411 | 0.0725
x1 = 0.962 | 0.0493
x1 = 0.9807 | 0.0265

CCCCC(=O)OC(=O)CCCC [pentanoic anhydride] + CCCCCCCCCCCCCCCC
[1]
Details | excess molar enthalpy [kcal/mol]
x1 = 0.0353 | 0.0694
x1 = 0.0683 | 0.125
x1 = 0.099 | 0.169
x1 = 0.1278 | 0.205
x1 = 0.1567 | 0.236
x1 = 0.1837 | 0.263
x1 = 0.209 | 0.284
x1 = 0.2329 | 0.302
x1 = 0.2553 | 0.317
x1 = 0.277 | 0.33
x1 = 0.2993 | 0.342
x1 = 0.3202 | 0.352
x1 = 0.3399 | 0.36
x1 = 0.3619 | 0.367
x1 = 0.3825 | 0.372
x1 = 0.4019 | 0.377
x1 = 0.42 | 0.38
x1 = 0.4371 | 0.382
x1 = 0.4532 | 0.383
x1 = 0.4705 | 0.384
x1 = 0.4866 | 0.384
x1 = 0.5018 | 0.383
x1 = 0.5161 | 0.382
x1 = 0.5296 | 0.381
x1 = 0.5424 | 0.379
x1 = 0.5564 | 0.377
x1 = 0.5695 | 0.374
x1 = 0.5819 | 0.371
x1 = 0.5935 | 0.368
x1 = 0.6046 | 0.365
x1 = 0.6168 | 0.363
x1 = 0.6292 | 0.358
x1 = 0.6421 | 0.353
x1 = 0.6556 | 0.348
x1 = 0.6696 | 0.342
x1 = 0.6842 | 0.335
x1 = 0.697 | 0.328
x1 = 0.7103 | 0.321
x1 = 0.7242 | 0.313
x1 = 0.7386 | 0.303
x1 = 0.7536 | 0.293
x1 = 0.7692 | 0.282
x1 = 0.7832 | 0.271
x1 = 0.7977 | 0.259
x1 = 0.8128 | 0.246
x1 = 0.8285 | 0.231
x1 = 0.8448 | 0.215
x1 = 0.8591 | 0.199
x1 = 0.8739 | 0.183
x1 = 0.8892 | 0.164
x1 = 0.905 | 0.145
x1 = 0.9214 | 0.123
x1 = 0.9361 | 0.103
x1 = 0.9513 | 0.0797
x1 = 0.967 | 0.0552
x1 = 0.9832 | 0.0282

CCCCCCCCCCCC [dodecane]
Details | mass density [kg/m3]
[2] | 745.28

CCCCCCCCCCCCCCCC [hexadecane]
Details | mass density [kg/m3]
[2] | 770.31

— the NIST ThermoML archive (doi:10.1021/je900598y)
